In patent publication US20240400555A1 (Initial Therapeutics, Inc., priority 2023, published 2024):

Tested on: MV-4-11 cells
Test: Cell Viability Assay in MV-4-11 Cells
Type: cell-based
Settings: Homo sapiens, MV4-11, 72 h, MV-4-11 cells, 72 h, Cell-Titer Glo; read-out: IC50
How it was run: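 Luminescent ATP read-out (CellTiter-Glo) after 72 h compound treatment of MV-4-11 leukaemia cells (7,000 per well, IMDM plus 10% FBS). Values expressed relative to DMSO control and derived by four-parameter non-linear regression.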

Row | SMILES | IC50 [nM]
1 | Cc1csc2ccnc(N(C(=O)c3ccc(-c4nnc(CCC#N)s4)cc3)[C@@H]3CCCNC3)c12 [Example 882, 4-[5-(2-cyanoethyl)-1,3,4-thiadiazol-2-yl]-N-(3-methylthieno[3,2-c]pyridin-4-yl)-N-[(3R)-3-piperidyl]benzamide] | 180
2 | Cc1csc2ccnc(N(C(=O)c3ccc(-c4nnc(CCC#N)s4)cc3F)[C@@H]3CCCNC3)c12 [Example 883, 4-[5-(2-cyanoethyl)-1,3,4-thiadiazol-2-yl]-2-fluoro-N-(3-methylthieno[3,2-c]pyridin-4-yl)-N-[(3R)-3-piperidyl]benzamide] | 160
3 | CCn1cc(-c2ccc(C(=O)N(c3nccc4scc(C)c34)[C@@H]3CCCNC3)cn2)nn1 [Example 885, 6-(1-ethyltriazol-4-yl)-N-(3-methylthieno[3,2-c]pyridin-4-yl)-N-[(3R)-3-piperidyl]pyridine-3-carboxamide] | 110
4 | C=Cc1csc2ccnc(N(C(=O)c3ccc(-c4nnc(C)s4)cc3F)[C@@H]3CCCNC3)c12 [Example 886, 2-fluoro-4-(5-methyl-1,3,4-thiadiazol-2-yl)-N-[(3R)-3-piperidyl]-N-(3-vinylthieno[3,2-c]pyridin-4-yl)benzamide] | 180
5 | C=C(C)c1ccnc(N(C(=O)c2ccc(-c3cn(C)nn3)cc2F)[C@@H]2CCCNC2)c1 [Example 887, 2-fluoro-N-(4-isopropenyl-2-pyridyl)-4-(1-methyltriazol-4-yl)-N-[(3R)-3-piperidyl]benzamide] | > 6300
6 | [2H]C([2H])([2H])n1cc(-c2ccc(C(=O)N(c3nccc4cccc(C)c34)[C@@H]3CCCNC3)c(F)c2)nn1 [Example 890, 2-fluoro-N-(8-methyl-1-isoquinolyl)-N-[(3R)-3-piperidyl]-4-[1-(trideuteriomethyl)triazol-4-yl]benzamide] | 60
7 | [2H]C([2H])([2H])c1nnc(-c2ccc(C(=O)N(c3nccc4scc(C)c34)[C@@H]3CCCNC3)cc2)s1 [Example 894, N-(3-methylthieno[3,2-c]pyridin-4-yl)-N-[(3R)-3-piperidyl]-4-[5-(trideuteriomethyl)-1,3,4-thiadiazol-2-yl]benzamide] | 130
8 | Cc1nnc(-c2ccc(C(=O)N(c3nccc4c(C)ccc(C)c34)[C@@H]3CCCNC3)cn2)s1 [Example 897, N-(5,8-dimethyl-1-isoquinolyl)-6-(5-methyl-1,3,4-thiadiazol-2-yl)-N-[(3R)-3-piperidyl] pyridine-3-carboxamide] | 140
9 | Cc1nnc(-c2ccc(C(=O)N(c3nccc4c(Cl)ccc(C)c34)[C@@H]3CCCNC3)cn2)s1 [Example 898, N-(5-chloro-8-methyl-1-isoquinolyl)-6-(5-methyl-1,3,4-thiadiazol-2-yl)-N-[(3R)-3-piperidyl] pyridine-3-carboxamide] | 120
10 | [2H]C([2H])([2H])c1nnc(-c2ccc(C(=O)N(c3nccc4cccc(C)c34)[C@@H]3CCCNC3)c(F)c2)s1 [Example 899, 2-fluoro-N-(8-methyl-1-isoquinolyl)-N-[(3R)-3-piperidyl]-4-[5-(trideuteriomethyl)-1,3,4-thiadiazol-2-yl]benzamide] | 150
11 | CCc1nnc(-c2ccc(C(=O)N(c3nccc4cccc(C)c34)[C@@H]3CCCNC3)cn2)s1 [Example 900, 6-(5-ethyl-1,3,4-thiadiazol-2-yl)-N-(8-methyl-1-isoquinolyl)-N-[(3R)-3-piperidyl] pyridine-3-carboxamide] | 70
12 | COc1ccc(C)c2c(N(C(=O)c3ccc(-c4nnc(C)s4)nc3)[C@@H]3CCCNC3)nccc12 [Example 902, N-(5-methoxy-8-methyl-1-isoquinolyl)-6-(5-methyl-1,3,4-thiadiazol-2-yl)-N-[(3R)-3-piperidyl] pyridine-3-carboxamide] | 383
13 | COCCCc1nnc(-c2ccc(C(=O)N(c3nccc4cc(C)cc(C)c34)[C@@H]3CCCNC3)cn2)s1 [Example 904, N-(6,8-dimethyl-1-isoquinolyl)-6-[5-(3-methoxypropyl)-1,3,4-thiadiazol-2-yl]-N-[(3R)-3-piperidyl]pyridine-3-carboxamide] | 75
14 | [2H]C([2H])([2H])c1nnc(-c2ccc(C(=O)N(c3nccc4cc(OC)cc(C)c34)[C@@H]3CCCNC3)cn2)s1 [Example 905, N-(6-methoxy-8-methyl-1-isoquinolyl)-N-[(3R)-3-piperidyl]-6-[5-(trideuteriomethyl)-1,3,4-thiadiazol-2-yl]pyridine-3-carboxamide] | 62
15 | [2H]C([2H])([2H])c1nnc(-c2ccc(C(=O)N(c3nccc4cc(C)cc(C)c34)[C@@H]3CCCNC3)cc2)s1 [Example 907, N-(6,8-dimethyl-1-isoquinolyl)-N-[(3R)-3-piperidyl]-4-[5-(trideuteriomethyl)-1,3,4-thiadiazol-2-yl]benzamide] | 130
16 | [2H]C([2H])([2H])c1nnc(-c2ccc(C(=O)N(c3nccc4cc(OC)cc(C)c34)[C@@H]3CCCNC3)cc2)s1 [Example 908, N-(6-methoxy-8-methyl-1-isoquinolyl)-N-[(3R)-3-piperidyl]-4-[5-(trideuteriomethyl)-1,3,4-thiadiazol-2-yl]benzamide] | 77
17 | [2H]C([2H])([2H])Oc1cc(C)c2c(N(C(=O)c3ccc(-c4nnc(C)s4)nc3)[C@@H]3CCCNC3)nccc2c1 [Example 909] | 62
18 | COCCc1nnc(-c2ccc(C(=O)N(c3nccc4cccc(C)c34)[C@@H]3CCCNC3)cn2)s1 [Example 910, (R)-6-(5-(2-methoxyethyl)-1,3,4-thiadiazol-2-yl)-N-(8-methylisoquinolin-1-yl)-N-(piperidin-3-yl)nicotinamide] | 97
19 | COc1cc(C)c2c(N(C(=O)c3ccc(-c4nnc(C)s4)nc3)[C@@H]3CCCNC3)nccc2c1F [Example 911, N-(5-fluoro-6-methoxy-8-methyl-1-isoquinolyl)-6-(5-methyl-1,3,4-thiadiazol-2-yl)-N-[(3R)-3-piperidyl]pyridine-3-carboxamide] | 140
20 | Cc1csc2ccnc(N(C(=O)c3ccc(-c4nnc(CCC#N)s4)nc3)[C@@H]3CCCNC3)c12 [Example 912, 6-[5-(2-cyanoethyl)-1,3,4-thiadiazol-2-yl]-N-(3-methylthieno[3,2-c]pyridin-4-yl)-N-[(3R)-3-piperidyl]pyridine-3-carboxamide] | 170
21 | COCCc1nnc(-c2ccc(C(=O)N(c3nccc4scc(C)c34)[C@@H]3CCCNC3)cn2)s1 [Example 913, 6-[5-(2-methoxyethyl)-1,3,4-thiadiazol-2-yl]-N-(3-methylthieno[3,2-c]pyridin-4-yl)-N-[(3R)-3-piperidyl]pyridine-3-carboxamide] | 130

These reach a lower IC50. Values come first.

Row | IC50 [nM] | SMILES
22 | 57 | Cc1cc(Cl)cc2ccnc(N(C(=O)c3ccc(-c4cn(C)nn4)nc3)[C@@H]3CCCNC3)c12 [Example 884, N-(6-chloro-8-methyl-1-isoquinolyl)-6-(1-methyltriazol-4-yl)-N-[(3R)-3-piperidyl]pyridine-3-carboxamide]
23 | 53 | COCc1nnc(-c2ccc(C(=O)N(c3nccc4cc(Cl)cc(C)c34)[C@@H]3CCCNC3)cn2)s1 [Example 895, N-(6-chloro-8-methyl-1-isoquinolyl)-6-[5-(methoxymethyl)-1,3,4-thiadiazol-2-yl]-N-[(3R)-3-piperidyl]pyridine-3-carboxamide]
24 | 51 | [2H]C([2H])([2H])n1cc(-c2ccc(C(=O)N(c3nccc4cc(Cl)cc(C)c34)[C@@H]3CCCNC3)cc2)nn1 [Example 892, N-(6-chloro-8-methyl-1-isoquinolyl)-N-[(3R)-3-piperidyl]-4-[1-(trideuteriomethyl)triazol-4-yl] benzamide]
25 | 48 | COc1cc(C)c2c(N(C(=O)c3ccc(-c4nnc(C)s4)nc3)[C@@H]3CCCNC3)nccc2c1 [Example 901, N-(6-methoxy-8-methyl-1-isoquinolyl)-6-(5-methyl-1,3,4-thiadiazol-2-yl)-N-[(3R)-3-piperidyl]pyridine-3-carboxamide]
26 | 48 | [2H]C([2H])([2H])c1nnc(-c2ccc(C(=O)N(c3nccc4cc(C)cc(C)c34)[C@@H]3CCCNC3)c(F)c2)s1 [Example 906, N-(6,8-dimethyl-1-isoquinolyl)-2-fluoro-N-[(3R)-3-piperidyl]-4-[5-(trideuteriomethyl)-1,3,4-thiadiazol-2-yl]benzamide]
27 | 46 | COCc1nnc(-c2ccc(C(=O)N(c3nccc4cc(C)cc(C)c34)[C@@H]3CCCNC3)cn2)s1 [Example 896, N-(6,8-dimethyl-1-isoquinolyl)-6-[5-(methoxymethyl)-1,3,4-thiadiazol-2-yl]-N-[(3R)-3-piperidyl] pyridine-3-carboxamide]
28 | 45 | COCCc1nnc(-c2ccc(C(=O)N(c3nccc4cc(C)cc(C)c34)[C@@H]3CCCNC3)cn2)s1 [Example 903, N-(6,8-dimethyl-1-isoquinolyl)-6-[5-(2-methoxyethyl)-1,3,4-thiadiazol-2-yl]-N-[(3R)-3-piperidyl]pyridine-3-carboxamide]
29 | 44 | [2H]C([2H])([2H])n1cc(-c2ccc(C(=O)N(c3nccc4cc(F)cc(C)c34)[C@@H]3CCCNC3)c(F)c2)nn1 [Example 891, 2-fluoro-N-(6-fluoro-8-methyl-1-isoquinolyl)-N-[(3R)-3-piperidyl]-4-[1-(trideuteriomethyl)triazol-4-yl]benzamide]
30 | 41 | [2H]C([2H])([2H])Oc1cc(C)c2c(N(C(=O)c3ccc(-c4cn(CC)nn4)cc3F)[C@@H]3CCCNC3)nccc2c1 [Example 889, 4-(1-ethyltriazol-4-yl)-2-fluoro-N-[8-methyl-6-(trideuteriomethoxy)-1-isoquinolyl]-N-[(3R)-3-piperidyl]benzamide]
31 | 40 | [2H]C([2H])([2H])n1cc(-c2ccc(C(=O)N(c3nccc4cc(Cl)cc(C)c34)[C@@H]3CCCNC3)c(F)c2)nn1 [Example 893, N-(6-chloro-8-methyl-1-isoquinolyl)-2-fluoro-N-[(3R)-3-piperidyl]-4-[1-(trideuteriomethyl)triazol-4-yl]benzamide]
32 | 26 | Cc1cccc2ccnc(N(C(=O)c3ccc(-c4cn(CCC#N)nn4)cc3F)[C@@H]3CCCNC3)c12 [Example 888, 4-[1-(2-cyanoethyl)triazol-4-yl]-2-fluoro-N-(8-methyl-1-isoquinolyl)-N-[(3R)-3-piperidyl]benzamide]
